Article PMC4468608, “A distinct p53 target gene set predicts for response to the selective p53–HDM2 inhibitor NVP-CGM097” (eLife, 2015)
Where two headings read alike, the source gives them in different places.

Test system: cell lines from the Cancer Cell Line Encyclopedia (CCLE)
Experiment: High-throughput cell viability assay, CCLE cell line panel (n = 356)
Format: cell-based, human
Details: Homo sapiens
Protocol: Cell lines were partitioned into sensitive and insensitive groups based on compound potency (IC50). […] All other cell lines were obtained from ATCC (American Type Culture Collection), DSMZ (Deutsche Sammlung von Mikroorganismen und Zellkulturen), and HSRRB (Health Science Research Resources Bank) and cultured in RPMI or Dulbecco's modified Eagle's medium plus 10% FBS (Invitrogen, Carlsbad, CA) at 37°C, 5% CO2.

Compound: COc1cc2c(cc1OC(C)C)[C@H](c1ccc(Cl)cc1)N(c1ccc(N(C)C[C@H]3CC[C@H](N4CCNC(=O)C4)CC3)cc1)C(=O)C2 [NVP-CFC218]
- IC50 (PC-3, TP53 MUT): > 8 µM
- IC50 (PC-14, PC-14, TP53 MUT): > 8 µM
- IC50 (PE/CA-PJ34 (clone C12), TP53 MUT): > 8 µM
- IC50 (PE/CA-PJ49, TP53 WT): > 8 µM
- IC50 (PK-1, TP53 MUT): > 8 µM
- IC50 (PK-45H, TP53 WT): > 8 µM
- IC50 (PL-21, PL-21, TP53 MUT): > 8 µM
- IC50 (PSN1, PSN1, TP53 MUT): > 8 µM
- IC50 (PaTu 8902, PA-TU-8902, TP53 MUT): > 8 µM
- IC50 (Panc 04.03, Panc 04.03, TP53 MUT): > 8 µM
- IC50 (QGP-1, QGP-1, TP53 WT): > 8 µM
- IC50 (RCM-1, RCM-1, TP53 MUT): > 8 µM
- IC50 (RERF-GC-1B, TP53 MUT): > 8 µM
- IC50 (RERF-LC-AI, TP53 WT): > 8 µM
- IC50 (RERF-LC-MS, TP53 MUT): > 8 µM
- IC50 (RKO, TP53 WT): 6.44 µM
- IC50 (RPMI 8402, RPMI-8402, TP53 MUT): > 8 µM
- IC50 (RT-112, RT-112, TP53 MUT): > 8 µM
- IC50 (Raji, TP53 MUT): > 8 µM
- IC50 (Reh, TP53 WT): 2.63 µM
- IC50 (S-117, S-117, TP53 MUT): > 8 µM
- IC50 (SBC-5, SBC-5, TP53 MUT): > 8 µM
- IC50 (SCC-4, SCC-4, TP53 MUT): > 8 µM
- IC50 (SCC-9, SCC-9, TP53 MUT): > 8 µM
- IC50 (SCC-25, SCC-25, TP53 MUT): > 8 µM
- IC50 (SCaBER, read-out: NVP- CFC218 IC50 (µM), cell line SCaBER, urinary_tract, TP53 MUT): > 8 µM
- IC50 (SF-295, SF-295, TP53 MUT): > 8 µM
- IC50 (SH-10-TC, TP53 MUT): > 8 µM
- IC50 (SHP77, SHP-77, TP53 MUT): > 8 µM
- IC50 (SJRH30, SJRH30, TP53 MUT): > 8 µM
- IC50 (SK-BR-3, SK-BR-3, TP53 MUT): > 8 µM
- IC50 (SK-HEP1, read-out: NVP- CFC218 IC50 (µM), cell line SK-HEP-1, liver, TP53 WT): > 8 µM
- IC50 (SK-LMS-1, SK-LMS-1, TP53 MUT): > 8 µM
- IC50 (SK-LU-1, SK-LU-1, TP53 MUT): > 8 µM
- IC50 (SK-MEL-5, read-out: NVP- CFC218 IC50 (µM), cell line SK-MEL-5, skin, TP53 WT): > 8 µM
- IC50 (SK-MEL-24, read-out: NVP- CFC218 IC50 (µM), cell line SK-MEL-24, skin, TP53 WT): > 8 µM
- IC50 (SK-MEL-30, SK-MEL-30, TP53 MUT): > 8 µM
- IC50 (SK-MES-1, SK-MES-1, TP53 MUT): > 8 µM
- IC50 (SK-N-AS, TP53 WT): > 8 µM
- IC50 (SK-N-FI, TP53 MUT): > 8 µM
- IC50 (SK-OV-3, SK-OV-3, TP53 MUT): > 8 µM
- IC50 (SNU-182, SNU-182, TP53 MUT): > 8 µM
- IC50 (SNU-423, read-out: NVP- CFC218 IC50 (µM), cell line SNU-423, liver, TP53 MUT): > 8 µM
- IC50 (SNU-475, SNU-475, TP53 MUT): > 8 µM
- IC50 (SU-DHL-4, SU-DHL-4, TP53 MUT): > 8 µM
- IC50 (SU-DHL-8, SU-DHL-8, TP53 MUT): > 8 µM
- IC50 (SUP-M2, SUP-M2, TP53 WT): 1.01 µM
- IC50 (SW480, SW480, TP53 MUT): > 8 µM
- IC50 (SW579, SW579, TP53 MUT): > 8 µM
- IC50 (SW780, read-out: NVP- CFC218 IC50 (µM), cell line SW 780, urinary_tract, TP53 WT): > 8 µM
- IC50 (SW900, SW 900, TP53 MUT): > 8 µM
- IC50 (SW1271, SW 1271, TP53 MUT): > 8 µM
- IC50 (SW1353, SW 1353, TP53 MUT): 4.91 µM
- IC50 (SW1417, SW1417, TP53 MUT): > 8 µM
- IC50 (SW1573, read-out: NVP- CFC218 IC50 (µM), cell line SW 1573, lung, TP53 WT): > 8 µM
- IC50 (SW1783, SW 1783, TP53 MUT): > 8 µM
- IC50 (SW1990, SW 1990, TP53 MUT): > 8 µM
- IC50 (SW-403, read-out: NVP- CFC218 IC50 (µM), cell line SW403, large_intestine, TP53 MUT): > 8 µM
- IC50 (T98G, TP53 MUT): > 8 µM
- IC50 (TE 617.T, TP53 WT): 2.91 µM
- IC50 (TE-1, TP53 MUT): > 8 µM
- IC50 (TE-5, TP53 MUT): > 8 µM
- IC50 (TE-11, read-out: NVP- CFC218 IC50 (µM), cell line TE-11, oesophagus, TP53 MUT): > 8 µM
- IC50 (TOV21G, TOV-21G, TP53 WT): 5.41 µM
- IC50 (TT2609-C02, TP53 MUT): > 8 µM
- IC50 (U-87 MG, TP53 WT): > 8 µM
- IC50 (U-937, U-937, TP53 MUT): > 8 µM
- IC50 (UMUC3, read-out: NVP- CFC218 IC50 (µM), cell line UM-UC-3, urinary_tract, TP53 MUT): > 8 µM
- IC50 (VMRC-RCZ, TP53 WT): > 8 µM
- IC50 (WM 266-4, WM-266-4, TP53 WT): 1.46 µM
- IC50 (WM983B, WM-983B, TP53 MUT): > 8 µM
- IC50 (WM-115, WM-115, TP53 WT): 3.38 µM
- IC50 (WSUDLCL2, WSU-DLCL2, TP53 MUT): > 8 µM
- IC50 (YKG-1, YKG1, TP53 MUT): > 8 µM
- IC50 (read-out: NVP- CFC218 IC50 (µM), cell line BICR 31, upper_aerodigestive_tract, TP53 MUT): > 8 µM
- IC50 (read-out: NVP- CFC218 IC50 (µM), cell line C3A, liver, TP53 WT): > 8 µM
- IC50 (read-out: NVP- CFC218 IC50 (µM), cell line C32, skin, TP53 WT): > 8 µM
- IC50 (read-out: NVP- CFC218 IC50 (µM), cell line CCK-81, large_intestine, TP53 MUT): > 8 µM
- IC50 (read-out: NVP- CFC218 IC50 (µM), cell line ES-2, ovary, TP53 MUT): > 8 µM
- IC50 (read-out: NVP- CFC218 IC50 (µM), cell line HEC-108, endometrium, TP53 MUT): > 8 µM
- IC50 (read-out: NVP- CFC218 IC50 (µM), cell line HEC-265, endometrium, TP53 WT): > 8 µM
- IC50 (read-out: NVP- CFC218 IC50 (µM), cell line Hs 618.T, lung, TP53 WT): > 8 µM
- IC50 (read-out: NVP- CFC218 IC50 (µM), cell line Hs 888.T, bone, TP53 WT): > 8 µM
- IC50 (read-out: NVP- CFC218 IC50 (µM), cell line Hs 944.T, skin, TP53 WT): > 8 µM
- IC50 (read-out: NVP- CFC218 IC50 (µM), cell line JHOS-2, ovary, TP53 MUT): > 8 µM
